Assay results published in patent US20030077573A1, “Methods of identifying compounds useful in the inhibition of neurodegenerative disease” (priority 1999, published 2003).
Bridge positions count the residues as written; N and C are the ends. Ends that are not written are not given here.

Assays:
[1] = system: N9 murine microglial cell line; experiment: LPS-induced TNF-α release from N9 microglia; type: cell-based
[2] = system: murine microglial cell line (N9); experiment: LTB4 release from N9 microglial cells; type: cell-based; conditions: 18 hours; for effect on Aβ-induced microglial LTB4 release: Aβ1-40 500 nM + drug (dipyridamole 10 μM)
Procedure: The murine microglial cell line (N9) is kindly provided by Dr. Paola Ricciardi-Castagnoli (Cellular Pharmacology Center, Milan, Italy) and cells are grown in RPMI 1640 medium supplemented with 5% fetal calf serum, 2 mM glutamine, 100 U/mL penicillin, 0.1 μg/mL streptomycin and 0.05 mM 2-mercaptoethanol. Microglial cells are seeded at 50,000 cells/well in 6-well plates (Falcon, France) and treated with Aβ1-40 (500 nM), dipyridamole (10 μM) or untreated (control) and incubated for 18 hours. Cell supernatants are then collected and immediately frozen at −80° C.
Cell supernatants (50 μL) are used in the LTB4 assay, and each sample is assayed in duplicate. Manipulations are performed in accordance with the manufacturer's instruction. A spectramax 250 spectrophotometer (Molecular Devices, San Diego, USA) is used to measure absorbance at 405 nm and a standard curve is plotted using a 4-parameter model. Cell extracts for protein determination are obtained by lysing microglial cells in 110 μL of ice cold lysis buffer ([…] pH 7.5, 150 mM NaCl, 1 mM EDTA, 1 mM EGTA, 1% Triton X-100, 2.5 mM sodium pyrophosphate, 1 mM β-Glycerophosphate, 1 mM Na3VO4, 1 μg/ml leupeptin and 1 mM phenylmethylsulfonyl fluoride). Protein concentrations are determined for each sample using the Biorad reagent according to the manufacturer's instruction. LTB4 data are thus expressed as pg LTB4 /mg cellular protein.

rat aortic rings [3] = experiment: vasoconstriction assay, ET-1-induced constriction of rat aortic rings; conditions: ET-1 1-5 nM, ODQ 10 μM, YC-1 5 μM, L-NAME 100 μM, dipyridamole 10 μM; for effect on Aβ-enhancement of ET-1-induced vasoconstriction (agent + Aβ): 1 μM Aβ1-40, ANOVA interaction; for effect on ET-1-induced vasoconstriction (agent alone): Aβ1-40 1 μM
Procedure: (§1) Vasoactivity is measured in rat aortic rings using the system previously described, for example by Crawford, F., et al., The vasoactivity of Aβ peptides, Ann. N. Y. Acad. Sci. 826:3546, (1997); Crawford, F., et al., Characteristics of the in vitro vasoactivity of beta-amyloid peptides, Exp. Neurol. 150:159-168 (1998); Paris, D., et al., Isoform-specific vasoconstriction induced by Apolipoprotein E and modulation of this effect by Alzheimer's β-amyloid peptide. Neurosci. Lett. 256:73-76, (1998); Paris, D., et al., Role of peroxynitrite in the vasoactive and cytotoxic properties of Alzheimer's β-amyloid1-40 peptide, Exp. Neurol. 152:116-122 (1998); and Thomas, T. N., et al., Vasoactive effects and free radical generation by β-amyloid peptides. U.S. Pat. No. 6,011,019. Jan. 4, 2000. Normal male Sprague-Dawley rats (7-8 months old) are sacrificed, and freshly dissected rat aortae are segmented into 3 mm rings and suspended in Kreb's buffer on hooks. These hooks are connected to an isometric transducer linked to a MacLab system. Aortic rings are equilibrated in the tissue bath system for two hours with the Kreb's buffer changed every 30 min.
For the vasoconstriction assay, the first group of aortic rings are pre-treated with 10 μM ODQ 2 minutes prior to the addition of 1 μM of Aβ1-40. After 5 minutes of incubation with Aβ, the vessels are then subjected to a dose range of ET-1 (from 1 nM to 5 nM). The second set of vessels are treated with Aβ prior to the addition of ET-1. A third set received ODQ treatment followed by ET-1, and the fourth group (control) only received ET-1 treatment. A similar protocol is applied with dipyridamole (10 μM), and YC-1 (5 μM). In all cases the percentage contraction as compared to baseline is determined for each dose of ET-1 used. The means and standard errors (SEs) of all such values are calculated.

rat aortic rings [4] = experiment: vasorelaxation assay, phenylephrine-constricted rat aortic rings; conditions: for effect on the relaxation induced by SNP: vessels constricted with 3.5 nM PE, SNP 0.1, 1, 2 μM, Aβ1-40 1 μM or ODQ 10 μM
Procedure: as §1
For the vasorelaxation assay, constricted aortic rings are pre-treated for 5 minutes with 1 μM of Aβ with a single dose of phenylephrine (3.5×10^−9 M) along with untreated controls. After waiting for stabilization of vasotension, aortic segments are subjected to a range of SNP doses. Aortic rings pre-constricted with a single dose of phenylephrine (3.5×10^−9 M) are treated with 10 μM ODQ 5 minutes prior to the addition of several doses of SNP. The effect of 10 μM of dipyridamole is also investigated on vessels pre-constricted with 3.5×10^−9 M of phenylephrine. Data are standardized such that the maximum PE-induced constriction is fixed at 100%.

rat aortic rings [5] = experiment: quantification of cGMP and cAMP levels in rat aortae (EIA)
Procedure: Aortic rings are equilibrated in Kreb's buffer for 2 hours and then constricted with a serial dose range of ET-1 (from 1 nM to 5 nM) in the presence or absence of 1 μM of Aβ. Immediately following maximum vasoconstriction (or, in the case of control rings, after 2 hours of equilibration in Kreb's buffer), aortae are frozen in liquid nitrogen. Vessels are then homogenized in 10% trichloracetic acid (TCA) diluted in PBS (at 4° C.) and centrifuged to pellet TCA precipitated proteins. Supernatants are collected and TCA is then removed from samples by three extractions with diethyl ether saturated in deionized water. Residual ether is removed from the sample by heating samples to 70° C. for 10 minutes. Both cGMP and cAMP levels are quantified using competitive binding EIAs (Alexis Biochemicals, San Diego, Calif.) according to the manufacturer's instruction.

[6] = ET-1 1-5 nM vs untreated control

Nc1nc2c(nc(Br)n2[C@@H]2O[C@@H]3COP(=O)(O)O[C@H]3[C@H]2O)c(=O)[nH]1 [8-Br cGMP, 8-bromo cGMP]
effect on LPS-induced microglial TNF-α release ([1]; 8-Br cGMP 1 μM, data not shown): partially inhibit LPS-induced microglial TNF-α release | effect on LPS-induced microglial TNF-α release ([1]; 8-Br cGMP 5 μM, LPS 2.5 ng/mL, 18 h): completely inhibit LPS-induced microglial TNF-α release | effect on Aβ-induced microglial LTB4 release [2]: completely block Aβ-induced microglial LTB4 release

COC(=O)[C@@H](N)CCCNC(=N)N[N+](=O)[O-] [L-NAME, N-ω-nitro-L-arginine methyl ester]
effect on Aβ-enhancement of ET-1-induced vasoconstriction (agent + Aβ) (rat aortic rings [3]): no statistical interaction is observed | effect on ET-1-induced vasoconstriction (agent alone) (rat aortic rings [3]): does not significantly increase ET-1-induced vasoconstriction

O=c1onc2cnc3ccccc3n12 [ODQ, 1H-[1,2,4]oxadiazolo[4,3,-α]quinoxalin-1-one]
effect on Aβ-enhancement of ET-1-induced vasoconstriction (agent + Aβ) (rat aortic rings [3]): constriction which is only additive | effect on ET-1-induced vasoconstriction (agent alone) (rat aortic rings [3]): Neither ODQ or Aβ alone are able to potentiate vasoconstriction induced by ET-1 | effect on the relaxation induced by SNP (rat aortic rings [4]): blocks the relaxation induced by this NO donor

OCCN(CCO)c1nc(N2CCCCC2)c2nc(N(CCO)CCO)nc(N3CCCCC3)c2n1 [dipyridamole]
effect on Aβ-enhancement of ET-1-induced vasoconstriction (agent + Aβ) (rat aortic rings [3]): blocks Aβ-induced vasoconstriction in a statistically interactive manner | effect on ET-1-induced vasoconstriction (agent alone) (rat aortic rings [3]): opposes ET-1-induced vasoconstriction in an ET-1 dose-dependent manner | effect on LPS-induced microglial activation (TNF-α release) ([1]; LPS 2.5 ng/mL, 18 h, dipyridamole 10 μM, SNP 10 μM, YC-1 10 μM): markedly reduce microglial activation induced by LPS | relaxation of aortic rings constricted with phenylephrine (rat aortic rings [4]; 10 μM dipyridamole, 3.5 nM PE): induced potent relaxation | effect on Aβ opposition to relaxation (rat aortic rings [4]; 10 μM dipyridamole, Aβ-treated vs control vessels, PE-constricted): blocks the opposition to relaxation normally induced by Aβ | relaxant effect on quiescent rings (rat aortic rings [4]; 10 μM dipyridamole, data not shown): no significant relaxant effect | effect on Aβ-induced microglial LTB4 release [2]: completely prevents the increased LTB4 production induced by Aβ

Aβ1-40: freshly solubilized β-amyloid peptide Aβ1-40, supplied by QCB
effect on the relaxation induced by SNP (rat aortic rings [4]): relaxation induced by SNP, an NO-donor, is reduced | cAMP levels in rat aortic rings (rat aortic rings [5]; 1 μM Aβ + ET-1 vs ET-1 alone): not able to modulate cAMP levels | cGMP levels in rat aortic rings (rat aortic rings [5]; 1 μM Aβ + ET-1 vs ET-1 alone): significantly lower compared to ET-1 treatment alone | microglial LTB4 release ([2]; Aβ1-40 500 nM, vs untreated cells): significant LTB4 release

ET-1: Endothelin-1, one of the most potent cerebrovascular vasoconstrictors (CSCSSLMDKECVYFCHLDIIW; disulfide 1-15, 3-11; ends not checked; UniProt P05305 53-73, looked up)
cAMP levels in rat aortic rings (rat aortic rings [5]; [6]): increase | cGMP levels in rat aortic rings (rat aortic rings [5]; [6]): increase
